This note sets out measurements from ChEMBL document CHEMBL1201862, “PubChem BioAssay data set” (2004).

Each structure is given as a SMILES string.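 Five compound concentrations were applied to cells in 96-well plates for 48 hours; endpoints were derived by simple linear interpolation of the resulting dose-response curve. Here, GI50 denotes the concentration required for 50% inhibition of growth.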 Active and inactive are the calls of the source. Rule as the data show it: active = GI50 up to about 1.1 µM and inactive = higher.

Holding throughout (assay): NCI anticancer screen, dose series, 48 h
Test [1] relates to Malme-3M.
Test [2] concerns UO-31.
For test [3], the system named is SF-539.
Test [4] concerns A549.
Test [5] deals with IGROV-1.
The subject of test [6] is NCI/ADR-RES.
For test [7], the system named is MCF7.
Test [8] concerns SN12C.
Test [9] deals with HL-60.
Test [10] concerns SK-MEL-2.
Test [11] relates to MDA-MB-231.
Test [12] concerns HCT-15.
The test system of test [13] is K562.
The test system of test [14] is TK-10.
For test [15], the system named is PC-3.
Test [16] relates to A498.
The subject of test [17] is SK-OV-3.
The subject of test [18] is NCI-H226.
The test system of test [19] is U-251.

Consider `N#C/C(=C/N1C(=O)/C(=C/c2ccc([N+](=O)[O-])cc2)SC1=S)c1nc2ccccc2s1`, for which the GI50 in test [1] was 25.8 µM (inactive); in test [2], 16.1 µM (inactive); in test [3], 28.9 µM (inactive); in test [4], 25.6 µM (inactive); in [5], 12.3 µM (inactive); in [6], 32.7 µM (inactive). Besides, the GI50 in test [7] was 15.6 µM (inactive); in test [8], 23.5 µM (inactive); in test [9] it was 17.5 µM (inactive); in [10] it was 16.7 µM (inactive); in [11], 12.8 µM (inactive); in [12] it was 21.6 µM. For the same molecule, the GI50 is 17.5 µM (inactive) in [13]; 26.9 µM (inactive) in test [14]; 13.8 µM (inactive) in test [15]; 12.1 µM (inactive) in [16]; 15.9 µM (inactive) in [17]; 12.2 µM (inactive) in test [18]. The GI50 in test [19] is 15.2 µM (inactive).
Turning to `CC(=O)O[C@@H]1C(=O)N(c2ccccc2)[C@@H]1c1cc2ccccc2c2ccccc12`, the GI50 in test [1] was 22.9 µM (inactive); in [2], 22.2 µM (inactive); in test [3], 25.4 µM (inactive); in [4] it was 21.5 µM (inactive); in test [5] it was 21.6 µM (inactive); in test [6], 33.9 µM (inactive). Moreover, the GI50 in test [7] was 34.2 µM (inactive); in test [8] it was 34.4 µM (inactive); in test [9], 26.4 µM (inactive); in test [10], 14.4 µM (inactive); in test [11], 20.3 µM (inactive); in test [12] it was 33.1 µM. The GI50 in test [13] is 36.6 µM (inactive); in test [14], 30.9 µM (inactive); in test [15] it was 32.9 µM (inactive); in test [16], > 100 µM (inactive); in [17], 47.8 µM (inactive); in test [18], 7.1 µM (inactive). The GI50 in test [19] is 43.1 µM (inactive).
For `CC(C)(C)OC(=O)NCC(CNC(=O)OC(C)(C)C)c1nc(C(N)=O)cs1`, the GI50 in [1], in [2], in [3], in [4], in [5] and in [6] was > 100 µM (inactive) in each case. For the same molecule, the GI50 was > 100 µM (inactive) in test [7]; > 100 µM (inactive) in test [8]; > 100 µM (inactive) in test [9]; > 100 µM (inactive) in test [10]; > 100 µM (inactive) in test [11]; greater than 100 µM in test [12]. The GI50 in test [13], in test [14], in test [15], in [16], in test [17] and in [18] was > 100 µM (inactive) each time. For the same molecule, in [19], the GI50 was > 100 µM (inactive).
`Cc1ccc(S(=O)(=O)OCCC2CN(C(=O)OCc3ccccc3)C(C)(C)O2)cc1` (stereo not drawn): the GI50 in test [1] was 8.2 µM (inactive); in test [2], 3.69 µM (inactive); in test [3], 12.5 µM (inactive); in test [4] it was 9.59 µM (inactive); in test [5], 7.08 µM (inactive); in [6], 2.4 µM (inactive). The GI50 in [7] was 7.83 µM (inactive); in test [8] it was > 100 µM (inactive); in [9] it was 5.24 µM (inactive); in [10] it was 17.7 µM (inactive); in [11], > 100 µM (inactive); in test [12], 3.66 µM. In addition, the GI50 in [13] is 8.63 µM (inactive); in [14] it was 8.75 µM (inactive); in [15], 4.79 µM (inactive); in test [16] it was > 100 µM (inactive); in test [17], > 100 µM (inactive); in test [18], 0.106 µM (active). In addition, the GI50 in [19] was 16.7 µM (inactive).
Regarding `CC1(C)C2C=C(CCN3CCOCC3)CC1C2` (stereo not drawn), the GI50 in test [1], in [2], in test [3], in test [4], in test [5] and in test [6] was > 100 µM (inactive) in each case. The GI50 in test [7] was > 100 µM (inactive); in test [8] it was > 100 µM (inactive); in [9], > 100 µM (inactive); in [10], > 100 µM (inactive); in [11] it was > 100 µM (inactive); in test [12], greater than 100 µM. Further, the GI50 in test [13] was > 100 µM (inactive); in [14] it was > 100 µM (inactive); in test [15], > 100 µM (inactive); in test [16], > 100 µM (inactive); in test [17], > 100 µM (inactive); in [18] it was 64.9 µM (inactive). In test [19], the GI50 is > 100 µM (inactive).
Regarding `C[C@H]1C=C2[C@@H]3CC(C)(C(=O)O)CC[C@]3(C)CC[C@]2(C)[C@]2(C)CC[C@H]3C(C)(C)[C@@H](OC(=O)c4cccc5c(=O)c6ccccc6[nH]c45)CC[C@]3(C)[C@@H]12` (stereo partly drawn), the GI50 in test [1] is 66.8 µM (inactive); in test [2] it was 70 µM (inactive); in [3] it was > 100 µM (inactive); in [4], 57.5 µM (inactive); in [5] it was > 100 µM (inactive); in test [6] it was 54.6 µM (inactive). For the same molecule, the GI50 in [7] is 40 µM (inactive); in [8], > 100 µM (inactive); in test [9], 38.4 µM (inactive); in [10], > 100 µM (inactive); in test [11], > 100 µM (inactive); in test [12], greater than 100 µM. Besides, the GI50 in [13] is 54.5 µM (inactive); in test [14], > 100 µM (inactive); in test [15], 38.2 µM (inactive); in test [16], 79.1 µM (inactive); in [17], > 100 µM (inactive); in test [18], 24 µM (inactive). Further, in test [19], the GI50 is 81.5 µM (inactive).
In the case of `OC(CCN1CCN(CCOC(c2ccc(F)cc2)c2ccc(F)cc2)CC1)c1ccc(Br)cc1` (stereo not drawn), the GI50 in [1] is 2.12 µM (inactive); in test [2] it was 2.22 µM (inactive); in [3], 2.3 µM (inactive); in test [4], 9.44 µM (inactive); in [5] it was 4.57 µM (inactive); in test [6], 2.21 µM (inactive). In addition, the GI50 in test [7] is 3.37 µM (inactive); in [8], 2.68 µM (inactive); in test [9], 2.77 µM (inactive); in [10], 5.36 µM (inactive); in [11] it was 5.74 µM (inactive); in [12] it was 2.74 µM. The GI50 in test [13] is 2.45 µM (inactive); in [14], 6.76 µM (inactive); in test [15] it was 4.83 µM (inactive); in test [16] it was 2.12 µM (inactive); in test [17] it was 7.35 µM (inactive); in [18], 5.7 µM (inactive). In addition, in [19], the GI50 was 4.11 µM (inactive).
